These results are taken from US11155517B2, “4-substituted phenylamine derivatives and their use to protect crops by fighting undesired phytopathogenic micoorganisms” (PI INDUSTRIES LTD., priority 2016, dated 2021).

The test system of one assay is Fusarium culmorum. Kind of assay: Fusarium culmorum (foot rot of cereals) in vitro test, radial growth on Potato Dextrose Agar. The settings on record: Fusarium culmorum, 168 h, read-out: % control compared to the untreated check (radial growth). The class given is cell-based.
A further assay concerns Botrytis cinerea. Briefly: Botrytis cinerea (gray mold) in vitro test, radial growth on Potato Dextrose Agar. The format is cell-based. As to conditions: 168 h, 300 ppm, seven days, 22° C., read-out: % (control) compared to the untreated check (radial growth).
Assay [1] deals with Alternaria solani. Kind of assay: Greenhouse Alternaria solani test in tomato, preventive. The class given is in vivo. The settings on record: 24 h, tomato plants sprayed one day before inoculation, read-out: Efficacy (% control), disease severity vs untreated check. How it is done: Compounds were dissolved in 2% DMSO/Acetone & then mixed with water to calibrated spray volume of 50 ml. This 50 ml spray solution was poured into the spray bottles for further applications. To test the preventive activity of compounds, healthy young Tomato plants raised in the greenhouse were sprayed with active compound preparation at the stated application rates inside the spray cabinets using hallowcone nozzles. One day after treatment, the plants were inoculated with spore suspension (2% Malt) containing 0.24×10^6 Alternaria solani inoculum. The inoculated plants were then kept in greenhouse chamber at 22-24° C. temperature and 90-95% relative humidity for disease expression. […] Efficacy (% control) of the compounds was calculated by comparing the disease rating in the treatment with untreated control. The sprayed plants were also assessed for compound's phytotoxic effects by recording symptoms like necrosis, chlorosis and stunting.

The test system of assay [2] is Alternaria solani. Kind of assay: Alternaria solani (early blight of tomato/potato) in vitro test, radial growth on Potato Dextrose Agar. The format is cell-based. As to conditions: 168 h, 300 ppm, seven days, 25° C., read-out: % control compared to the untreated check (radial growth).
A further assay relates to Pyricularia oryzae. Kind of assay: microbe, parasite or virus in culture. The format is cell-based. As to conditions: 168 h, read-out: % control compared to the untreated check (radial growth).
Another assay concerns Septoria lycopersici. Briefly: Septoria lycopersici (leaf spot of tomato) in vitro test, radial growth on Potato Dextrose Agar. As to conditions: 168 h, seven days, 25° C., read-out: % control compared to the untreated check (radial growth). The class given is cell-based.
A further assay relates to Rhizoctonia solani. Kind of assay: Rhizoctonia solani (rice sheath blight/potato black scurf) in vitro test, radial growth on Potato Dextrose Agar. As to conditions: 168 h, 300 ppm, seven days, 25° C., read-out: % control compared to the untreated check (radial growth). The format is cell-based.
The next assay relates to Colletotrichum capsici. Kind of assay: Colletotrichum capsici (anthracnose) in vitro test, radial growth on Potato Dextrose Agar. The format is cell-based. The settings on record: Colletotrichum truncatum, 168 h; 300 ppm; seven days, 25° C.; read-out: % control compared to the untreated check (radial growth).
For the next assay, the system named is Botrytis cinera. Briefly: Greenhouse Botrytis cinera test in tomato, preventive. The format is in vivo. As to conditions: 24 h, plants sprayed one day before inoculation, read-out: Efficacy (% control), disease severity vs untreated check.

On to `CCN(C)C=Nc1cc(C)c(Cc2cc(F)ccc2Cl)cc1Cl` [Compound 178, N′-(2-chloro-4-(2-chloro-5-fluorobenzyl)-5-methylphenyl)-N-ethyl-N-methylformimidamide], for which the inhibition of growth at 300 ppm is 75% with Fusarium culmorum; over 80% in the assay on Botrytis cinerea; over 75% with Alternaria solani [2]; over 75% in the assay on Pyricularia oryzae; over 70% in the assay with Septoria lycopersici; over 80% in the assay with Rhizoctonia solani. Moreover, in the assay with Colletotrichum capsici, the inhibition of growth at 300 ppm was over 80%. Moreover, in the assay on Alternaria solani [1], the pest or weed control at 500 ppm was in the range of 70 to 100%.
`CCN(C)C=Nc1cc(C)c(Cc2cccc(Cl)c2Cl)cc1Cl` [Compound 128, N′-(2-chloro-4-(2,3-dichlorobenzyl)-5-methylphenyl)-N-ethyl-N-methylformimidamide]: the inhibition of growth at 300 ppm with Botrytis cinerea was over 80%; in the assay with Alternaria solani [2], over 75%; with Pyricularia oryzae, over 75%; in the assay with Septoria lycopersici it was over 70%; in the assay with Rhizoctonia solani, over 80%; in the assay on Colletotrichum capsici, over 80%. The pest or weed control at 500 ppm with Alternaria solani [1] was in the range of 70 to 100%.
Take `CCN(C)C=Nc1cc(C)c(Cc2ccccc2C#N)cc1C` [Compound 115, N′-(4-(2-cyanobenzyl)-2,5-dimethylphenyl)-N-ethyl-N-methylformimidamide]: the pest or weed control at 500 ppm with Alternaria solani [1] lay within 70 to 100%. The inhibition of growth at 300 ppm in the assay on Alternaria solani [2] was over 75%; in the assay with Pyricularia oryzae, over 75%; in the assay with Rhizoctonia solani it was over 80%; in the assay with Colletotrichum capsici, over 80%.
Consider `CCN(C)C=Nc1cc(C)c(Cc2cc(F)cc(Cl)c2)cc1Cl` [Compound 176, N′-(2-chloro-4-(3-chloro-5-fluorobenzyl)-5-methylphenyl)-N-ethyl-N-methylformimidamide], for which the inhibition of growth at 300 ppm in the assay with Fusarium culmorum is 75%; with Botrytis cinerea it was over 80%; in the assay with Alternaria solani [2] it was over 75%; in the assay on Pyricularia oryzae it was over 75%; in the assay on Septoria lycopersici it was over 70%; with Rhizoctonia solani it was over 80%. Also, in the assay with Colletotrichum capsici, the inhibition of growth at 300 ppm was over 80%. Moreover, the pest or weed control at 500 ppm with Alternaria solani [1] lay in the range of 70 to 100%.
As to `CCN(C)C=Nc1cc(C)c(Cc2ccccc2[N+](=O)[O-])cc1C` [Compound 50, N′-(2,5-dimethyl-4-(2-nitrobenzyl)phenyl)-N-ethyl-N-methylformimidamide], the inhibition of growth at 300 ppm with Fusarium culmorum was 75%; with Botrytis cinerea, over 80%; with Alternaria solani [2] it was over 75%; in the assay on Pyricularia oryzae, over 75%; in the assay with Septoria lycopersici, over 70%; in the assay on Rhizoctonia solani it was over 80%. In the assay with Colletotrichum capsici, the inhibition of growth at 300 ppm was over 80%. Moreover, the pest or weed control at 500 ppm with Alternaria solani [1] was in the range of 70 to 100%.
Turning to `CCN(C)C=Nc1cc(F)c(Cc2ccccc2Cl)cc1C` [Compound 174, N′-(4-(2-chlorobenzyl)-5-fluoro-2-methylphenyl)-N-ethyl-N-methylformimidamide], the inhibition of growth at 300 ppm in the assay on Fusarium culmorum was 75%; in the assay on Botrytis cinerea it was over 80%; in the assay with Alternaria solani [2] it was over 75%; in the assay on Pyricularia oryzae it was over 75%; in the assay with Septoria lycopersici, over 70%; with Rhizoctonia solani, over 80%. In addition, the inhibition of growth at 300 ppm in the assay on Colletotrichum capsici is over 80%. Further, the pest or weed control at 500 ppm in the assay on Alternaria solani [1] was 70 to 100%.
As for `CCN(C)C=Nc1cc(F)c(Cc2ccc(C)cc2)cc1C` [Compound 175, N-ethyl-N′-(5-fluoro-2-methyl-4-(4-methylbenzyl)phenyl)-N-methylformimidamide], the inhibition of growth at 300 ppm in the assay on Fusarium culmorum is 75%; in the assay with Botrytis cinerea, over 80%; in the assay on Alternaria solani [2], over 75%; with Pyricularia oryzae, over 75%; in the assay with Septoria lycopersici, over 70%; in the assay with Rhizoctonia solani, over 80%. In the assay with Colletotrichum capsici, the inhibition of growth at 300 ppm was over 80%. The pest or weed control at 500 ppm in the assay with Alternaria solani [1] lay within 70 to 100%.
Turning to `CCN(C)C=Nc1cc(C)c(Cc2ccc(Cl)cc2Cl)cc1Cl` [Compound 179, N′-(2-chloro-4-(2,4-dichlorobenzyl)-5-methylphenyl)-N-ethyl-N-methylformimidamide], the inhibition of growth at 300 ppm was 75% with Fusarium culmorum; over 80% in the assay on Botrytis cinerea; over 75% in the assay on Alternaria solani [2]; over 75% in the assay on Pyricularia oryzae; over 80% with Rhizoctonia solani; over 80% in the assay on Colletotrichum capsici. Further, the pest or weed control at 500 ppm in the assay with Alternaria solani [1] and in the assay on Botrytis cinera was 70 to 100% throughout.
For `Cc1cc(N=CN2CCOCC2)c(Cl)cc1Cc1ccccc1Cl` [Compound 40, N-(2-chloro-4-(2-chlorobenzyl)-5-methylphenyl)-1-morpholinomethanimine], the inhibition of growth at 300 ppm in the assay with Botrytis cinerea is over 80%. Also, the pest or weed control at 500 ppm in the assay with Alternaria solani [1] and in the assay with Botrytis cinera was 70 to 100% throughout.
With `CCN(C)C=Nc1cc(C)c(Cc2ccc(F)cc2F)cc1Cl` [Compound 180, N′-(2-chloro-4-(2,4-difluorobenzyl)-5-methylphenyl)-N-ethyl-N-methylformimidamide], the inhibition of growth at 300 ppm was 75% in the assay on Fusarium culmorum; over 80% with Botrytis cinerea; over 75% with Alternaria solani [2]; over 75% in the assay with Pyricularia oryzae; over 80% in the assay with Rhizoctonia solani; over 80% in the assay on Colletotrichum capsici. In addition, the pest or weed control at 500 ppm in the assay with Alternaria solani [1] and in the assay on Botrytis cinera was 70 to 100% in each case.
For `CCN(C)C=Nc1cc(C)c(Cc2ccc(SC)cc2)cc1C` [Compound 8, N′-(2,5-dimethyl-4-(4-(methylthio)benzyl)phenyl)-N-ethyl-N-methylformimidamide], the inhibition of growth at 300 ppm was over 80% with Botrytis cinerea; over 75% with Alternaria solani [2]; over 75% with Pyricularia oryzae; over 70% in the assay on Septoria lycopersici; over 80% in the assay with Rhizoctonia solani; over 80% in the assay on Colletotrichum capsici. The pest or weed control at 500 ppm in the assay with Alternaria solani [1] is 70 to 100%.
In the case of `CCN(C)C=Nc1cc(C)c(Cc2ccc(C#N)cc2)cc1Cl` [Compound 68, N′-(2-chloro-4-(4-cyanobenzyl)-5-methylphenyl)-N-ethyl-N-methylformimidamide], the inhibition of growth at 300 ppm in the assay with Fusarium culmorum is 75%; in the assay with Alternaria solani [2] it was over 75%; in the assay on Pyricularia oryzae it was over 75%; in the assay with Septoria lycopersici it was over 70%; in the assay on Rhizoctonia solani, over 80%. In addition, the pest or weed control at 500 ppm with Alternaria solani [1] was 70 to 100%.
`CCN(C)C=Nc1cc(C)c(Cc2cccc([N+](=O)[O-])c2)cc1Cl` [Compound 71, N′-(2-chloro-5-methyl-4-(3-nitrobenzyl)phenyl)-N-ethyl-N-methylformimidamide]: the inhibition of growth at 300 ppm with Fusarium culmorum was 75%; with Botrytis cinerea it was over 80%; in the assay with Alternaria solani [2], over 75%; in the assay with Pyricularia oryzae it was over 75%; in the assay on Septoria lycopersici, over 70%; in the assay on Rhizoctonia solani it was over 80%. Also, the inhibition of growth at 300 ppm in the assay on Colletotrichum capsici is over 80%. For the same molecule, in the assay with Alternaria solani [1], the pest or weed control at 500 ppm lay in the range of 70 to 100%.
Take `CCN(C)C=Nc1cc(C)c(Cc2ccccc2S(C)(=O)=O)cc1C` [Compound 25, N′-(2,5-dimethyl-4-(2-(methylsulfonyl)benzyl)phenyl)-N-ethyl-N-methylformimidamide]: the pest or weed control at 500 ppm in the assay on Alternaria solani [1] and in the assay on Botrytis cinera was 70 to 100% in each case. In addition, the inhibition of growth at 300 ppm with Alternaria solani [2] is over 75%; in the assay on Pyricularia oryzae it was over 75%; in the assay with Septoria lycopersici, over 70%; with Rhizoctonia solani, over 80%; in the assay on Colletotrichum capsici, over 80%.
In the case of `CCN(C)C=Nc1cc(C)c(Cc2ccc(F)cc2F)cc1C` [Compound 161, N′-(4-(2,4-difluorobenzyl)-2,5-dimethylphenyl)-N-ethyl-N-methylformimidamide], the inhibition of growth at 300 ppm with Fusarium culmorum was 75%; in the assay with Botrytis cinerea, over 80%; in the assay with Alternaria solani [2] it was over 75%; in the assay on Pyricularia oryzae, over 75%; with Septoria lycopersici it was over 70%; with Rhizoctonia solani it was over 80%. Also, the inhibition of growth at 300 ppm with Colletotrichum capsici was over 80%. Also, the pest or weed control at 500 ppm with Alternaria solani [1] lay within 70 to 100%.
With `CCN(C)C=Nc1cc(C)c(C(OC)c2ccccc2)cc1C` (stereo not shown) [Compound 2, N-ethyl-N′-(4-(methoxy(phenyl)methyl)-2,5-dimethylphenyl)-N-methylformimidamide], the pest or weed control at 500 ppm in the assay with Alternaria solani [1] and with Botrytis cinera was 70 to 100% each time. In addition, the inhibition of growth at 300 ppm with Alternaria solani [2] is over 75%; with Pyricularia oryzae, over 75%; in the assay with Rhizoctonia solani it was over 80%.
